Results: patent EP0061001A1, “Antiallergic agent comprising derivatives of adenosine” (Yamasa Shoyu Kabushiki Kaisha, priority 1981, dated 1982)
Where two headings read alike, the source gives them in different places.

Legend:
[1] = test system: Passive cutaneous anaphylaxis (PCA); assay: Passive cutaneous anaphylaxis (PCA) suppressing effect, method of J. Goose et al; type: in vivo, rats (Sprague Dawley-strain); conditions: iv, 40 min, rat PCA, compound given intravenously with antigen and Evans blue
Procedure: According to the method of J. Goose et al (see Immunology 16, 749, 1969), PCA reaction was carried out in the following manner.
To male rats (Sprague Dawley-strain; hereinafter abbreviated as SD-strain), weighing 120 to 150 g, 10 mg/kg of ovalubumin was administered intramuscularly and 2 x 10^10 cells of Bodetalla pertussis vaccine intraperitoneally. After 10 to 12 days, each rat was bled and antiserum was separated.
To other rats (SD-strain, weighing 120 to 150 g) shaved at the back, under ether anesthetization, 0.1 ml of the above antiserum diluted 4-fold was injected intradermally for dermal sensitization. After 48 hours, 1 mg/kg of ovalubumin (antigen), 1 mg/kg of Evans blue (dye) and various N^6-ω-aminoalkyl adenosine compounds and DSCG or isotonic saline were challenged intravenously. After 40 minutes, the diameter of dye spots on the skin and the leak quantity of dye were measured to determine ED50 (50% effective amount) for each compound.
The leak quantity of dye was determined by extracting the dye from the skin peeled off with potassium hydroxide, removing proteins with acetoneafter neutralization with phosphoric acid, and thereafter measuring absorbance at 620 nm of the resultant extract, which step was then followed by calculation therefrom. The N^6-ω-aminoalkyl adenosine compounds provided for the tests are enumerated below: […]

Acute toxicity tests = conditions: mouse, in vivo, ip; male mice, intraperitoneally, free form in isotonic saline solution or suspension; brackets = 95% confidence limit
Procedure: To ICR-JCL-strain mice (male, weighing 24 to 28 g), various N^6-w-aminoalkyl adenosine compound-s (each in free form) were administered as isotonic saline solutions or suspensions each in a dosage of 0.1 ml/10 g intraperitoneally for determination of LD50.

[2] = diameter of dye spots on the skin after 40 minutes, read-out: ED50 By diameter
[3] = leak quantity of dye after 40 minutes (absorbance at 620 nm), read-out: ED50 By dye quantity

Row | Structure (SMILES) | ED50 [1, 2] [mg/kg] | ED50 [1, 3] [mg/kg] | LD50 (Acute toxicity tests) [mg/kg]
1 | O=C(O)c1cc(=O)c2c(OCC(O)COc3cccc4oc(C(=O)O)cc(=O)c34)cccc2o1 [DSCG, disodium cromoglycate, reference compound] | 3.3 | 3 | 
2 | NCCCNc1ncnc2c1ncn2[C@@H]1O[C@H](CO)[C@@H](O)[C@H]1O [compound 1, N^6-(3-amino-n-propyl)-Ado] | 0.87 | 0.2 | 
3 | NCCCCCCNc1ncnc2c1ncn2[C@@H]1O[C@H](CO)[C@@H](O)[C@H]1O [compound 2, N^6-(6-amino-n-hexyl)-Ado] | 0.15 | 0.06 | 
4 | NCCCCCCCNc1ncnc2c1ncn2[C@@H]1O[C@H](CO)[C@@H](O)[C@H]1O [compound 3, N^6-(7-amino-n-heptyl)-Ado] | 0.058 | 0.06 | 145
5 | NCCCCCCCCCNc1ncnc2c1ncn2[C@@H]1O[C@H](CO)[C@@H](O)[C@H]1O [compound 4, N^6-(9-amino-n-nonyl)-Ado] | 0.084 | 0.084 | 175
6 | NCCCNc1ncnc2c1ncn2[C@@H]1O[C@H](COP(=O)(O)O)[C@@H](O)[C@H]1O [compound 5, N^6-(3-amino-n-propyl)-5'-AMP] | 0.46 | 0.31 | 
7 | NCCCCCCNc1ncnc2c1ncn2[C@@H]1O[C@H](COP(=O)(O)O)[C@@H](O)[C@H]1O [compound 6, N^6-(6-amino-n-hexyl)-5'-AMP] | 0.51 | 0.32 | 
8 | NCCCCCCCCCNc1ncnc2c1ncn2[C@@H]1O[C@H](COP(=O)(O)O)[C@@H](O)[C@H]1O [compound 7, N^6-(9-amino-n-nonyl)-5'-AMP] | 0.29 | 0.16 | 195
9 | NCCCCNc1ncnc2c1ncn2[C@@H]1O[C@H](CO)[C@@H](OP(=O)(O)O)[C@H]1O [compound 8] | 1.7 | 0.64 | 
10 | NCCCCCCNc1ncnc2c1ncn2[C@@H]1O[C@H](CO)[C@@H](OP(=O)(O)O)[C@H]1O [compound 9, N^6-(6-amino-n-hexyl)-3'-AMP] | 1.9 | 0.7 | 
11 | NCCCCCCCCNc1ncnc2c1ncn2[C@@H]1O[C@H](CO)[C@@H](OP(=O)(O)O)[C@H]1O [compound 10, N^6-(8-amino-n-octyl)-3'-AMP] | 1.5 | 0.7 | 220
12 | NCCCCNc1ncnc2c1ncn2[C@@H]1O[C@@H]2COP(=O)(O)O[C@H]2[C@H]1O [compound 11, N^6-(4-amino-n-butyl)-cAMP] | 15 | 9.4 | 
13 | NCCCCCCNc1ncnc2c1ncn2[C@@H]1O[C@@H]2COP(=O)(O)O[C@H]2[C@H]1O [compound 12, N^6-(6-amino-n-hexyl)-cAMP] | 3.3 | 3.2 | 165
14 | NCCCCCCCCNc1ncnc2c1ncn2[C@@H]1O[C@@H]2COP(=O)(O)O[C@H]2[C@H]1O [compound 13, N^6-(8-amino-n-octyl)-cAMP] | 3.7 | 3.1 | 
15 | NCCCCCCCCCNc1ncnc2c1ncn2[C@@H]1O[C@@H]2COP(=O)(O)O[C@H]2[C@H]1O [compound 14, N^6-(9-amino-n-nonyl)-cAMP] | > 3.3 | 3.3 | 
16 | NCCCCCCCCCCNc1ncnc2c1ncn2[C@@H]1O[C@@H]2COP(=O)(O)O[C@H]2[C@H]1O [compound 15, N^6-(10-amino-n-decanyl)-cAMP] | 8.2 | 6 | 
